Source: the supplement of paper PMC11208160

Assay: recombinant barcode read abundance after kanamycin selection (control-corrected) (log10(CPM+1)); higher = more efficient recombination; sequences stand for … in AGTGCAGAGAAAATCGGCCAGTTTTCTCTGCCTGCAGTCCGCATGCCGT…AGATTTATGCAGCGGACTGCCTTTCTCCCAAAGTGATAAACCGGACAGTATCATGGACCGGTTTTCCCGGTAATCCGTATTTGCAAGGTTGGTTTCACT; site = the 11-nt target
Protocol: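 Pooled E. coli target-specificity screen for the IS621 bridge recombinase. Each library plasmid pairs an 11-nt target (CT core) with a bridge RNA whose target-binding loop (9-nt LTG + 4-nt RTG) is reprogrammed; the rest of the 177-nt WT IS621 bridge RNA scaffold is fixed. The plasmid is co-electroporated with a WT donor plasmid; recombinase is induced with 0.1 mM IPTG and recombinants are selected on kanamycin. Recombinant barcodes are sequenced, converted to CPM, averaged over two biological replicates and corrected by the unselected control CPM. Molecule = full bridge RNA written as DNA: LTG = specificity nt 1-9, RTG = reverse complement of specificity nt 8-11, in the WT scaffold.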
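Further: IS621 recombinase and bridge RNA in Escherichia coli cells.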

| Sequence | recombinant barcode read abundance (log10) |
| --- | --- |
| AGAATCCCTTGGGTTCTAACCTGTTGCTA (site AGAATCCCTTA) | 1.74 |
| TAGTGTCCTTGGGTTCTAACCTGTTGCAT (site TAGTGTCCTAT) | 0.769 |
| GTCTCTACTTGGGTTCTAACCTGTTGCCT (site GTCTCTACTAG) | 0.221 |
| CGTCCGACTTGGGTTCTAACCTGTTGCAT (site CGTACGACTAT) | 0.0562 |
| TAACGTCCTTGGGTTCTAACCTGTTGCGT (site TAACGTACTCC) | 0.0665 |
| GACCAGCCTTGGGTTCTAACCTGTTGCTT (site GACCAGCCTAG) | 1.29 |
| GCTCAGCCTTGGGTTCTAACCTGTTGCCT (site GCTCAGCCTAG) | 1.14 |
| TCGGGGACTTGGGTTCTAACCTGTTGCCG (site TCAGGGACTCT) | 0.183 |
| TGCGTCGCTTGGGTTCTAACCTGTTGCCT (site TGCGTCGCTAG) | 0.687 |
| TAGACCACTTGGGTTCTAACCTGTTGCAC (site TAGACCACTGT) | 0.954 |
| TGGACCACTTGGGTTCTAACCTGTTGCCT (site TGGAACACTAG) | 0.0728 |
| TCGTACCCTTGGGTTCTAACCTGTTGCAA (site AAAATATCTAG) | 0.083 |
| TGGAAGTCTTGGGTTCTAACCTGTTGCTT (site TGGAAGTCTAA) | 0.418 |
| CAGAGTCCTTGGGTTCTAACCTGTTGCCT (site CAGAGTCCTAG) | 1.26 |
| TAGTTAGCTTGGGTTCTAACCTGTTGCCG (site TAGTTAGCTAG) | 0.0808 |
| TCTAAACCTTGGGTTCTAACCTGTTGCCT (site TCTAAACCTAG) | 0.205 |
| AGTGAGCCTTGGGTTCTAACCTGTTGCCT (site AGTTAGCCTAG) | 0.0633 |
| AGCCTCCCTTGGGTTCTAACCTGTTGCCT (site AGGCTCCCTAG) | 0.0381 |
| TTACGCGCTTGGGTTCTAACCTGTTGCGG (site TTACGCGCTCC) | 1.67 |
| GGTCATACTTGGGTTCTAACCTGTTGCCT (site GGTCATCCTAG) | 0.0309 |
| GGTCAACCTTGGGTTCTAACCTGTTGCGG (site TACTCTTCTAG) | 0.113 |
| AAGTCCTCTTGGGTTCTAACCTGTTGCTG (site CTAAGGCCTAT) | 0.442 |

| Sequence | recombinant barcode read abundance (log10) |
| --- | --- |
| GAGTTGCCTTGGGTTCTAACCTGTTGCCT (site GTGTTGCCTAG) | 1.59 |
| ATATGGGCTTGGGTTCTAACCTGTTGCCG (site ATATGGGCTCG) | 1.52 |
| TAGAAGGCTTGGGTTCTAACCTGTTGCGT (site TAGAAGGCTAT) | 1.96 |
| GACCAGCCTTGGGTTCTAACCTGTTGCGT (site GACCAGCCTAA) | 0.104 |
| ATCTACTCTTGGGTTCTAACCTGTTGCCT (site ATCTACTCTAG) | 1.56 |
| CGGCATACTTGGGTTCTAACCTGTTGCCT (site CGGCATACTAG) | 0.66 |
| TACAGTACTTGGGTTCTAACCTGTTGCCT (site AACAGTACTAG) | 0.0317 |
| GGGATGGCTTGGGTTCTAACCTGTTGCCT (site GGGATGGCTAG) | 1.32 |
| ATGGTCACTTGGGTTCTAACCTGTTGCCT (site AAGGTCACTAG) | 0.354 |
| CAGTATCCTTGGGTTCTAACCTGTTGCCT (site CAATATCCTAG) | 0.867 |
| TAGAAGCCTTGGGTTCTAACCTGTTGCCG (site TACAAGCCTAG) | 0.0659 |
| TAGTATCCTTGGGTTCTAACCTGTTGCCA (site TACTACCCTTG) | 0.142 |
| AAGTTTACTTGGGTTCTAACCTGTTGCCT (site AAGTTTACTAG) | 0.0875 |
| CGTGCGCCTTGGGTTCTAACCTGTTGCCT (site CGTGCGCCTAG) | 0.174 |
| CTGGTGTCTTGGGTTCTAACCTGTTGCCA (site CTGTTGTCTTG) | 0.434 |
| ACATAGTCTTGGGTTCTAACCTGTTGCAG (site ACATAGTCTCT) | 1.01 |
| TCCCATCCTTGGGTTCTAACCTGTTGCGT (site TCCCATCCTAC) | 2.38 |
| TCCGCTACTTGGGTTCTAACCTGTTGCCT (site TCCGCTCCTAG) | 0.0689 |
| ACCTGGGCTTGGGTTCTAACCTGTTGCCT (site AACTGGGCTAG) | 0.0365 |
| GGATAGACTTGGGTTCTAACCTGTTGCGT (site GGATACACTAC) | 0.107 |
| CTGGTGTCTTGGGTTCTAACCTGTTGCCA (site CTGCTGTCTTG) | 0.0405 |
| CCGCAGCCTTGGGTTCTAACCTGTTGCCT (site CCGCAGCCTAG) | 1.59 |

| Sequence | recombinant barcode read abundance (log10) |
| --- | --- |
| AGACTAACTTGGGTTCTAACCTGTTGCTT (site AGACTAACTAA) | 0.715 |
| CCGGTATCTTGGGTTCTAACCTGTTGCCT (site CCGGTATCTAG) | 0.197 |
| GAGCTCACTTGGGTTCTAACCTGTTGCCA (site GAGCACCCTTG) | 0.0579 |
| CTATTCCCTTGGGTTCTAACCTGTTGCCT (site CTATTCTCTAG) | 0.483 |
| TCCTATCCTTGGGTTCTAACCTGTTGCGA (site GTGGGAACTAA) | 0.0465 |
| TACTACCCTTGGGTTCTAACCTGTTGCCA (site TACTACCCTTG) | 0.606 |
| TAGGTTCCTTGGGTTCTAACCTGTTGCAT (site TAGGTTCCTAT) | 1.04 |
| TAGAAGCCTTGGGTTCTAACCTGTTGCCG (site TAGAAGCCTCG) | 1.62 |
| ATGTGCTCTTGGGTTCTAACCTGTTGCCT (site ATGTGCTCTAG) | 2.07 |
| AAGGGCCCTTGGGTTCTAACCTGTTGCCT (site CAGGGCCCTAG) | 0.339 |
| GTCCTATCTTGGGTTCTAACCTGTTGCCA (site ACGGATCCTAT) | 0.0705 |
| CGAGATCCTTGGGTTCTAACCTGTTGCCT (site CGAGATCCTAG) | 0.678 |
| CTAGACTCTTGGGTTCTAACCTGTTGCAT (site CTAGACTCTGT) | 0.161 |
| CTAAGAGCTTGGGTTCTAACCTGTTGCCA (site CTAAGGGCTTG) | 0.0357 |
| AAGGCCTCTTGGGTTCTAACCTGTTGCTT (site AAGACCTCTAA) | 0.775 |
| GGCGGCCCTTGGGTTCTAACCTGTTGCGG (site GACTGCCCTCC) | 0.103 |
| TGTTAGCCTTGGGTTCTAACCTGTTGCCA (site GGTTAGCCTAG) | 0.0168 |
| TCCGAGACTTGGGTTCTAACCTGTTGCCG (site TCCGAGACTAG) | 0.541 |
| CAGGTCCCTTGGGTTCTAACCTGTTGCCG (site ATACGTTCTAT) | 0.102 |
| AGCAGGACTTGGGTTCTAACCTGTTGCCG (site AGCACGACTCA) | 0.0667 |
| GGCTAGTCTTGGGTTCTAACCTGTTGCTT (site GGATTGTCTAA) | 0.109 |
| CACCCCTCTTGGGTTCTAACCTGTTGCCG (site CACCCCTCTCG) | 2.44 |
